Measured values published in US8506997B2, “Pharmaceutical compound containing silymarin and carbopol, its manufacturing process and its use as a regenerator of the pancreatic tissue and cells of endogenous secretion damaged by diabetes mellitus” (Universidad Autonoma Metropolitana, priority 2002, dated 2013).

Assays:
Type in all cases: in vivo
[1] = tested on: pancreatic tissue; experiment: Histopathological analysis of the pancreatic tissue (HE staining); conditions: treatment with Alloxan only
Method: (§1) The treatment of the Silymarin and Carbopol combined with Alloxan was done in two ways. In the first case, a dose of 200 mg/Kg of the Silymarin and Carbopol compound was administered orally at 6, 24 and 48 hours (two days) after the first dose. In the second case, in addition to the dose mentioned in the first case, the administration was prolonged every 24 hours after the first dose for five more days (seven days). In both cases, the dose of Alloxan was 150 mg/Kg, which was administered subcutaneously one hour after the first dose of the Silymarin and Carbopol compound.
This analysis was done in transversal fragments of pancreas approximately 0.7 cm long corresponding to the head of the organ. Subsequently, by the paraffin embedding technique, 5 μm sections where then obtained, which were stained with the dyes hematoxylin and eosin (HE). This technique consists in: 1) dehydration of the tissue, which is done by passing the tissue through different concentration of alcohol (from 25 to 100%) and then to an alcohol-toluene, toluene-paraffin and paraffin mixture. Once the tissues are dehydrated, blocks are formed with paraffin. 2) Sectioning of the tissue. This is done in a microtome, which is adjusted to the right section thickness of 4 to 6 μm and is placed in a slide. 3) Staining of the sections. This was done with the dyes hematoxylin and eosin. […]

[2] = tested on: islets of Langerhans; experiment: Immunohistochemical analysis for insulin and glucagon in the islets of Langerhans by confocal microscopy; conditions: treatment with Alloxan only (FIG. 1)
Method: as §1
This analysis is carried out on sections of pancreatic tissue (corresponding to the head of the pancreas). Once the sections have been obtained (described in example 3) they are placed on a slide and the tissue is then deparaffinated and rehydrated. It is begun in pure xylol, with two changes of 10 minutes each. The samples are then passed to a mixture of ethanol-xylol for 10 minutes and afterward to alcohols of different percentages: 100, 90, 80 and 70% for five minutes each. […] At the end of this time, they are flushed with PBS and incubated in a mixture of secondary antibodies coupled with fluorochromes, fluorescein and rhodamine, for one hour at ambient temperature and they are then mounted in a specific medium to preserve the fluorescence. The samples are analyzed by confocal microscopy. […]

[3] = tested on: glutathione peroxidase; experiment: Activity of pancreatic antioxidant enzymes: glutathione peroxidase; conditions: pancreas; Alloxan (20 days after its administration)
Method: (§2) A determination was made of the pancreatic activity of the antioxidant enzymes: superoxide dismutase, glutathione peroxidase and catalase. To do such determination, the pancreas was weighed, it was homogenized with a phosphate buffer 50 mM, it was centrifuged at 3000 rpm, and the supernatant was separated. The activities of the aforementioned enzymes was determined in this.
Glutathione peroxidase.—This quantification was done by the method of Prasad et al. (1992). This enzyme catalyzes the breakdown of H2O2 by the NADPH. Its activity is measured by the velocity of absorbance change during the conversion of NADPH to NADP^+ and this may be spectrophotometrically registered at […].

[4] = tested on: superoxide dismutase; experiment: Activity of pancreatic antioxidant enzymes: superoxide dismutase; conditions: pancreas; Alloxan (20 days after its administration)
Method: as §2
Superoxide dismutase.—This quantification was done by the method of Prasad et al. (1992). Superoxide ions are formed by xanthine and xanthine oxidase. These ions react with the tetrazolium blue and they form a colour compound that can be spectrophotometrically quantified at 560 nm. A unit of superoxide dismutase can inhibit the formation of this compound by 50%.

[5] = tested on: catalase; experiment: Activity of pancreatic antioxidant enzymes: catalase; conditions: pancreas; Alloxan (20 days after its administration)
Method: as §2
Catalase.—This quantification was carried out by the Aebi method (1995). This enzyme catalyzes the breakdown of H2O2 and the decomposition velocity of the oxygenated water is measured spectrophotometrically at 240 nm.

[6] = tested on: serum glucose; experiment: Determination of serum glucose (ortho-toluidine method) in Alloxan-induced Diabetes Mellitus; conditions: 20 days after Alloxan, before starting the treatment with the Silymarin and Carbopol compound
Method: as §1
The determination of blood glucose was carried out by the Baner method. This consisted in taking 50 μl of serum to which 3.0 ml of ortho-toluidine reagent were added which reacts with aldohexoses and forms […] and a Schiff base, the green color developed has a maximum absorption at 620 nm and is proportional to the quantity of glucose present.
In the case of the combined administration of the Silymarin and Carbopol compound with Alloxan, the determination of serum glucose was done before the administration of the drugs and at 3, 5, 15 and 30 days after the treatment. […]

SMILES: O=C1NC(=O)C(=O)C(=O)N1 [Alloxan]
- histopathology of the pancreatic tissue [1]: cellular disorganization with loss of the islets of Langerhans
- pancreatic islet, insulin and glucagon immunostaining [2]: destruction occurred of the pancreatic islet
- Enzymatic activity Glutathione Peroxidase [3]: 0.016 ± .002 μM NADPH/min/mg prot
- Enzymatic activity Superoxide Dismutase [4]: 4.3 ± 0.02 U/mg protein.
- Enzymatic activity Catalase [5]: 0.01 ± 0.002 k/sec/mg of protein
- serum glucose concentration above the normal value [6]: approximately 400%
